US4145444A, “Anti-inflammatory agent of benzoyl derivative” (priority 1977, dated 1979)
Like-named read-outs stand apart in the source and are kept apart here.

Columns and labels:
[1] = tested on: platelet; assay: Blood platelet aggregation inhibiting effect (collagen-induced); type: cell-based, rabbits; conditions: Oryctolagus cuniculus, Platelet; 10^-4 mole, collagen inducer, rabbit PRP; read-out: Blood platelet agg. inh.: percentage inhibition of platelet aggregation
Text: Male rabbits (Japan original white strain 3.3 to 3.6 kg) were anesthetized with Thiopental sodium and blood was sampled from the carotid artery.

[2] = tested on: male mice; assay: Analgesic effect: painful stretchings following intraperitoneal 0.7% acetic acid; conditions: Mus musculus, po, read-out: Analgesic: percentage diminition of times of painful stretching
Description: Each sample was orally administered in the dosage of 100 mg/kg before injection of acetic acid.

[3] = tested on: hind paws of male rats; assay: Anti-inflammatory effect: acute carragheenin edema method; type: in vivo; conditions: Rattus norvegicus; for inhibition in vivo at 100 mg/kg: read-out: Anti-inf.: edema inhibition rate
Description: The edema was induced by subcutaneous injection of 1% carragheenin suspension in saline to the hind paws of male rats weighting 150 to 180 g. Each sample was orally given at the dosage of 100 mg/kg just before the inoculation of carragheenin.

[4] = tested on: thrombus; assay: Inhibiting effect on thrombosis (by-pass between left juglar vein and right carotid artery, silk thread); type: in vivo, SD type male rates; conditions: Rattus norvegicus, read-out: Thrombosis inh.: thrombosis inhibition rate
Description: The inhibiting effects of the samples of the invention on thrombosis were tested by the following test method.
A 0.5 ml of 50 μ/ml of the heparin physiological saline was added through the polyethylene tube before the first blood circulation. After the blood circulation for 15 minutes, the circulation was stopped in the middle of the tubing at artery side with a pinch cock.
Then, 0.2 ml of the heparin physiological saline was added to remove the blood coagulates on the tubing wall and another new polyethylene tubing filled with the heparin solution and containing a piece of new silk thread was attached between the venous and artery tubing ends.
The blood circulation was reestablished by opening the pinch cock. After 15 minutes, the wet weight of thrombus on the silk thread was similarly measured.
In the same manner, the third circulation was performed and wet weight of thrombus measured.
The amount of thrombus was given by the equation A. [formula] Each sample was suspended in an aqueous solution of sodium carboxymethyl cellulose and the oral dose of the suspension (100 mg/kg) was performed at 5 hours before the first blood circulation.
The amount of thrombus after the oral dose of the sample was calculated in the same manner as that of control circulations.
The thrombosis inhibition rate was given by the equation B. [formula]

[5] = 100 mg/kg oral, carragheenin edema, male rats (Table 2)
[6] = 100 mg/kg oral, 5 hours before first blood circulation, rats

SMILES	inhibition at 100 µM [1] [%]	inhibition in vivo at 100 mg/kg [2] [%]	inhibition in vivo at 100 mg/kg [3, 5] [%]	inhibition in vivo at 100 mg/kg [4, 6] [%]	ED50 ([3]; po, read-out: 50% inhibition ED50 (values in brackets)) [mg/kg]	inhibition in vivo at 100 mg/kg ([3]; po) [%]	inhibition in vivo at 100 mg/kg ([4]; po, 5 h) [%]
O=C(c1ccc(F)cc1)c1ccccc1Cl [compound 115]	25.4	11.8	14.5	27.5			
O=C(c1ccccc1)c1ccccc1 [compound 27]	25.7	13.2			120	47.7	25.9
CCCCCCCCCCc1ccc(C(=O)c2ccccc2)cc1 [compound 68]	16.5	5.8	17.6	20.3			
CCCCc1ccc(C(=O)Cc2ccccc2)cc1 [compound 39]	2.6	23.1	35.9	15.9			
CCCCc1ccc(CCCC)c(C(=O)c2ccc(C)cc2)c1 [compound 17]	17.3	10.3	36.3	19.5			
Cc1ccc(C)c(C(=O)c2ccccc2)c1 [compound 38]	20.9	18	37.5	8.3			
CCCCCCc1ccc(C(=O)c2ccc(C)cc2)cc1 [compound 36]	15.1	13.7	34.8	28.1			
Cc1cc(C)c(C)c(C(=O)c2ccccc2)c1C [compound 78]	19.9	5.4	12.5	20.2			
CCCCc1ccc(C(=O)c2cccc(C)c2)cc1 [compound 88]	24.5	5.6	21.6	29.3			
Cc1ccc(C(=O)c2ccccc2)cc1 [compound 65]	21	10.9	17.3	19.2			
CCCCCCCc1ccc(C(=O)c2ccc(C)cc2)cc1 [compound 85]	18.7	10.2		16.2		18.7	
Cc1ccc(C(=O)C(=O)c2ccccc2)cc1 [compound 54]	15.4	11.3				25.5	20.3
CCCc1ccc(C(=O)Cc2ccccc2)cc1 [compound 49]	28.5	18.2	10.7	13.4			
CCCCCCCCCc1ccc(C(=O)c2ccc(CCCC)cc2)cc1 [compound 102]	30.4	15.2	22.4	29.7			
Cc1ccccc1C(=O)c1c(C)c(C)cc(C)c1C [compound 91]	14.7	15.2	21.4	31			
CCCc1ccc(C(=O)c2ccc(O)cc2)cc1 [compound 104]	25.3	13.2	27.4	30.5			
COc1ccc(OC)c(C(=O)c2ccccc2)c1 [compound 75]	30.7	22	29.5	29.2			
CC(C)Cc1ccc(C(=O)c2ccccc2)cc1 [compound 67]	18.5	19.1	20	17.3			
CCCCCCc1ccc(C(=O)c2c(C)cc(C)cc2C)cc1 [compound 103]	29.5	14.2	29.7	35.8			
CCCCCc1ccc(C(=O)c2ccc(O)cc2)cc1 [compound 105]	24.1	14.1	33.6	31.4			
O=C(c1ccc(F)cc1)c1ccc(F)cc1 [compound 114]	26.8	18.3	33.2	31.1			

SMILES	inhibition at 100 µM [1] [%]	inhibition in vivo at 100 mg/kg [2] [%]	inhibition in vivo at 100 mg/kg [3, 5] [%]	inhibition in vivo at 100 mg/kg [4, 6] [%]	ED50 ([3]; po, read-out: 50% inhibition ED50 (values in brackets)) [mg/kg]	inhibition in vivo at 100 mg/kg ([3]; po) [%]	inhibition in vivo at 100 mg/kg ([4]; po, 5 h) [%]
CCCCOc1ccc(C(=O)c2ccccc2)cc1 [compound 42]	4.4	26.8	35.8	10.7			
CCc1ccc(C(=O)c2ccccc2)cc1 [compound 66]	20.7	15.7	34.4	20.5			
CCCCCCCCc1ccc(C(=O)c2ccc(CCCC)cc2)cc1 [compound 101]	27.9	18.3	23.1	31.4			
CCCc1ccc(C(=O)c2ccc(C)cc2C)cc1 [compound 96]	28.5	18.9	26.1	36.7			
CCCCCc1ccc(C(=O)c2ccccc2F)cc1 [compound 9]	14.6	15.3	74.6	25.3			
COc1cc(OC)c(C(=O)c2ccccc2)c(OC)c1 [compound 76]	16.2	13.9	15.7	18.4			
O=C(Cc1ccccc1)c1ccccc1 [compound 47]	18.3	13.1				20.9	15.6
Cc1ccc(C(=O)c2c(C)cc(C)cc2C)cc1 [compound 86]	28.3	8.3	17.7	35.6			
CCCc1ccc(C(=O)c2ccccc2)cc1 [compound 20]	36.6	17.3	42.7	4.1			
CCCCCCCCCCCc1ccc(C(=O)Cc2ccccc2)cc1 [compound 51]	9.5	18.3	24.6	13.5			
CCCc1ccc(C(=O)c2ccc(CCC)cc2)cc1 [compound 110]	20.5	10.5	17	18.6			
O=C(C(=O)c1ccccc1)c1ccccc1 [compound 53]	10.1	14.2				20.3	19.2
Cc1ccc(C(=O)Cc2ccccc2)cc1 [compound 48]	20.5	12.5	26	18.3			
CCc1ccc(C(=O)C(=O)c2ccccc2)cc1 [compound 55]	23.3	15.8	29	16.4			
CCCCCCCc1ccc(C(=O)c2ccc(CCCC)cc2)cc1 [compound 100]	22.4	10	14	27.6			
CCCCCc1ccc(C(=O)c2cccc(C)c2)cc1 [compound 89]	22.6	4.3	27.6	13.2			
CCCc1ccc(C(=O)c2ccccc2C)cc1 [compound 90]	10.8	13.7	19.7	15			
COc1ccc(C(=O)c2ccccc2)c(OC)c1 [compound 74]	18.5	24.2	30.2	28.9			
CCCCCc1ccc(C(=O)c2ccccc2C)cc1 [compound 41]	14.4	14.6	47.4	28.5			
CCCCCCCCCCCCc1ccc(C(=O)Cc2ccccc2)cc1 [compound 52]	6.8	12.5	25.5	10.1			
O=C(c1ccccc1)c1ccccc1F [compound 15]	23.2	18.5	61.4	26.5			
